Test results: patent US7199131B2, “Sulfonamide and sulfamide substituted imidazoquinolines” (3M Innovative Properties Company, priority 2001, dated 2007)
Counter-ions that a name gives are not always drawn.

melting point	SMILES
110.2 °C (dec.)	CCCCc1nc2c(N)nc3ccccc3c2n1CCCCNS(=O)(=O)c1cccc(N)c1 (as salt: hydrochloride)
176 to 178.2 °C	CCCCc1nc2c(N)nc3ccccc3c2n1CCCCNS(=O)(=O)c1cccc([N+](=O)[O-])c1 (as salt: hydrochloride) [Example 7, N^1-[4-(4-Amino-2-butyl-1H-imidazo[4,5-c]quinolin-1-yl)butyl]-3-nitro-1-benzenesulfonamide Hydrochloride]
96 °C (dec.)	CCCCc1nc2c(N)nc3ccccc3c2n1CCCCNS(=O)(=O)c1ccc([N+](=O)[O-])cc1 (as salt: hydrochloride) [Example 9, N^1-[4-(4-Amino-2-butyl-1H-imidazo[4,5-c]quinolin-1-yl)butyl]-4-nitro-1-benzenesulfonamide Hydrochloride]
203.1 to 205 °C	CCCCc1nc2c(N)nc3ccccc3c2n1CCCCNS(=O)(=O)c1ccc(N)cc1 (as salt: hydrochloride) [Example 10, N^1-[4-(4-Amino-2-butyl-1H-imidazo[4,5-c]quinolin-1-yl)butyl]-4-amino-1-benzenesulfonamide Hydrochloride]
> 250 °C	Cc1nc2c(N)nc3c(c2n1CCCCNS(C)(=O)=O)CCCC3 (as salt: hydrochloride) [Example 263, N-[4-(4-amino-2-methyl-6,7,8,9-tetrahydro-1H-imidazo[4,5-c]quinolin-1-yl)butyl]methanesulfonamide hydrochloride]
223 to 224 °C	CCCCc1nc2c(N)nc3ccccc3c2n1CCCCNS(=O)(=O)c1cccc2c(N(C)C)cccc12 [Example 1, N^1-[4-(4-Amino-2-butyl-1H-imidazo[4,5-c]quinolin-1-yl)butyl]-5-(dimethylamino)-1-naphthalenesulfonamide]
137.5 to 141.5 °C	CCCCc1nc2c(N)nc3ccccc3c2n1CCCCNS(=O)(=O)c1cccs1 [Example 3, N^2-[4-(4-Amino-2-butyl-1H-imidazo[4,5-c]quinolin-1-yl)butyl]-2-thiophenesulfonamide]
197 to 199.5 °C	CCCCc1nc2c(N)nc3ccccc3c2n1CCCCNS(=O)(=O)Cc1ccccc1 [Example 4, N-[4-(4-Amino-2-butyl-1H-imidazo[4,5-c]quinolin-1-yl)butyl]phenylmethanesulfonamide]
75.5 to 79 °C	CCCCc1nc2c(N)nc3ccccc3c2n1CCCCNS(=O)(=O)c1ccccc1 [Example 5, N^1-[4-(4-Amino-2-butyl-1H-imidazo[4,5-c]quinolin-1-yl)butyl]-1-benzenesulfonamide]
96 °C (dec.)	CCCCc1nc2c(N)nc3ccccc3c2n1CCCCNS(=O)(=O)c1cccc2cnccc12 [Example 11, N^5-[4-(4-Amino-2-butyl-1H-imidazo[4,5-c]quinolin-1-yl)butyl]-5-isoquinolinesulfonamide]
78.1 to 79.5 °C	COc1ccc(Cc2nc3c(N)nc4ccccc4c3n2CCCCNS(C)(=O)=O)cc1 [Example 12, N-[4-(4-Amino-2-(4-methoxybenzyl)-1H-imidazo[4,5-c]quinolin-1-yl]butyl]methanesulfonamide]
191 to 193 °C	COCCc1nc2c(N)nc3c(c2n1CCCCNS(=O)(=O)c1ccc(F)cc1)CCCC3 [Example 14, N^1-{4-[4-Amino-2-(2-methoxyethyl)-6,7,8,9-tetrahydro-1H-imidazo[4,5-c]quinolin-1-yl]butyl}-4-fluoro-1-benzenesulfonamide]
214 to 216 °C	Nc1nc2ccccc2c2c1nc(-c1ccccc1)n2CCCCNS(=O)(=O)c1ccc(F)cc1 [Example 15, N-[4-(4-Amino-2-phenyl-1H-imidazo[4,5-c]quinolin-1-yl)butyl]-4-fluoro-1-benzenesulfonamide]
234 to 235 °C	CS(=O)(=O)NCCCCn1c(-c2ccccc2)nc2c(N)nc3ccccc3c21 [Example 16, N-[4-(4-Amino-2-phenyl-1H-imidazo[4,5-c]quinolin-1-yl)butyl]methanesulfonamide]
